The values that follow come from patent US20230372498A1, “PLK1 SELECTIVE DEGRADATION INDUCING COMPOUND” (UPPTHERA, priority 2020, published 2023).

The target in this test is T1, PLK1 (Homo sapiens, UniProt P53350).
T1 construct: endogenous in cells; host or cells: HeLa
In words: PLK1 protein degradation in HeLa cells, Western blotting (PLK1/GAPDH ratio). Type of test: cell-based. Conditions: 6 hours compound incubation; for DC50: measured only if the grade of Dmax is A or B; for Dmax: thymidine block and release, 10 points three-fold from 3 μM, PLK1 to GAPDH ratio. The source says:
The HeLa cell line was purchased from Korea Cell Line Bank (KCLB), Seoul, Korea. The passage in cell culture was maintained at P115 to P125.
For cell culture, DMEM (Gibco, Cat. No. 1195-65; Lot. No. 2085318), FBS (Gibco, Cat. No. 16000-044; Lot. No. 2097593), Penicillin/Streptomycin (PS) (Gibco, Cat. No. 15140-122; Lot. No. 2058855), 100 mm^2 cell culture dish (SPL, Cat. No. 20100), 150 mm^2 cell culture dish (SPL, Cat. No. 20150), 12-well culture plate (SPL, Cat. No. 30012), PBS pH 7.4 (Gibco, Cat. No. 10010-023; Lot. No. 2085080), TrypLE™ Express (Gibco, Cat. No. 12605-010; Lot No. 2070638), Counting Chamber (Hematocytometer) (Hirschmann, Cat. No. 8100204), and 0.4% Trypan Blue Solution (DYNEBIO, Cat. No. CBT3710; Lot. No. 20190723) were used.
2×10^5 cells were seeded for each well of a 12-well plate (SPL), and the cells were cultured in the culture medium in a total volume of 2 ml.
The compounds of Examples were completely dissolved in DMSO and used in the experiment, and thymidine was completely dissolved in DW and used in the experiment. For thymidine block, the products were treated with 2 mM of thymidine (Sigma-Aldrich Cat. No. T9250-5G) and then incubated for 24 hours.
For release and chemical treatment, the medium was suctioned and washed 3 times with 1×PBS. Complete media was added, followed by incubation for 4 hours in a CO2 incubator. Each compound was diluted three folds from the highest concentration of 3 μM to the lowest concentration in 10 points and then incubated for 6 hours again.
For SDS-PAGE and Western blotting, 1×RIPA lysis buffer (Rockland, Cat. No. MB-030-0050; Lot no. 39751), 100× Protease Inhibitor Cocktail (Quartett, Cat. No. PPI1015; Lot no. PCO50038424), Pierce™ BCA protein assay kit (ThermoScientific, Cat. No. 23225; Lot no. UC276876), albumin standard (ThermoScientific, Cat. No. 23209; Lot no. UB269561), 4-15% Mini-PROTEAN TGX stain-free gel (Bio-rad, Cat. No. 4568085; Lot no. L007041B), 10× Tris/Glycine/SDS buffer (Bio-rad, Cat. No. 1610732; Lot no. 10000044375B); 10×TBS (Bio-rad, Cat. No. 1706435; Lot no. 1000045140B), 10% Tween 20 (Cat. No. 1610781; Lot no. L004152B), Color protein standard broad range (NEB, Cat. No. P7719S; Lot no. 10040349), 4× Laemmli sample buffer (Bio-rad, Cat. No. 1610747; Lot no. L004133B), β-mercaptoethanol (Sigma-Aldrich, Cat. No. M3148; Lot no. 60-24-2), SuperBlock™ T20 (TBS) blocking buffer (ThermoScientific, Cat. No. 37536; Lot no. UC282578), 1M sodium azide solution (Sigma-Aldrich, Cat. No. 08591-1 mL-F; Lot no. BCBV4989), α-Rabbit pAb to Ms IgG (abcam, Cat. No. ab97046; Lot no. GR3252115-1), α-Goat pAb to Rb IgG (CST, Cat. No. 7074S; Lot no. 28), α-GAPDH (abcam, Cat. No. ab8245; Lot no. GR3275542-2), α-Plk1 (CST, Cat. No. 208G4), α-BRD4 (CST, Cat. No. 13440S), ECL™ Prime western blotting reagents (GE Healthcare, Cat. No. RPN2232; Lot no. 17001655), Ponceau S solution (Sigma-Aldrich, Cat. No. P7170; Lot no. SLBV4112), Difco™ Skim milk (BD, Cat. No. 232100; Lot no. 8346795), and iBlot® 2 NC Regular stacks (Invitrogen, Cat. No. IB323001; Lot no. 2NR110619-02) were used.
For cell harvesting, the cells were first separated from the plate using trypsin and then washed with the medium and PBS. Specifically, the medium was suctioned off and washed with 1 mL of PBS, and PBS was suctioned off. The cells were treated with 0.5 mL TrypLE™ Express at 37° C. for 7 minutes to separate the cells, and then 0.5 mL of complete medium was added to collect 1 mL of cell culture solution. Then, 1 mL of the cell collection solution was centrifuged at 8,000 rpm for 120 seconds, and the supernatant was removed. After washing with 0.2 mL of PBS, the PBS was removed.
For cell lysis, a lysis buffer was added and cell debris was removed to obtain a cell lysate. Specifically, the cells were treated with 70 μL of 1×RIPA buffer containing a protease inhibitor and incubated for 30 minutes on ice. Then, the cells were centrifuged at 4° C. and 15,000 rpm for 10 minutes to obtain a cell lysate. […]
In general terms: Immunoblotting shows a protein as a band on a membrane.

SMILES strings stand for the structures. Where two headings read alike, the source gives them in different places. Where only a bound is given, the exact number is not on record here.

T1 sequence (P53350 whole entry): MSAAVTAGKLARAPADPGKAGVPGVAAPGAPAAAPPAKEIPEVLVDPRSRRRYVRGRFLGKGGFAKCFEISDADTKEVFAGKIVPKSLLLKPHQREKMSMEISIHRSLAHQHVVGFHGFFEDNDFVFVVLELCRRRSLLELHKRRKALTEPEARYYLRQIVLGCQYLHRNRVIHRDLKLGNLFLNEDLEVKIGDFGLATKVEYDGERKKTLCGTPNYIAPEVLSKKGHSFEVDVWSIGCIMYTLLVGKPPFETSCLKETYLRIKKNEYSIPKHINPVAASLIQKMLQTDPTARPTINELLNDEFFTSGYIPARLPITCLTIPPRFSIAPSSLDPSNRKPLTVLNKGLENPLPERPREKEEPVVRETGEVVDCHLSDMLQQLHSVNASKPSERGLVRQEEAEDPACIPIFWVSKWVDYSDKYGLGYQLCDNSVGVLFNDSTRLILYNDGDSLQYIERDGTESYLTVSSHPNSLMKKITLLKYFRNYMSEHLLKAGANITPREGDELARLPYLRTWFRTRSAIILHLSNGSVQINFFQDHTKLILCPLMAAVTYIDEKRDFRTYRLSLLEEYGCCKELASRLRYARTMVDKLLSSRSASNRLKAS

Broadly, the DC50 is the concentration at which degradation of the target reaches its halfway point. As a reminder, the Dmax is the greatest extent of degradation seen. Take `COc1cc(C(=O)NC2CCN(CCCCCCCNc3cccc4c3C(=O)N(C3CCC(=O)NC3=O)C4=O)CC2)c(F)cc1Nc1ncc2c(n1)N(C1CCCC1)CC(F)(F)C(=O)N2C` (stereo not drawn) [Compound 11, 4-((9-cyclopentyl-7,7-difluoro-5-methyl-6-oxo-6,7,8,9-tetrahydro-5H-pyrimido[4,5-b][1,4]diazepin-2-yl)amino)-N-(1-(7-((2-(2,6-dioxopiperidin-3-yl)-1,3-dioxoisoindolin-4-yl)amino)heptyl)piperidin-4-yl)-2-fluoro-5-methoxybenzamide]: the DC50 was ≤ 500 nM. The Dmax (read-out: Dmax) lay in the range of 60 to 80%.

For the compound `COc1cc(C(=O)NC2CCN(CCCCCCCCNc3cccc4c3C(=O)N(C3CCC(=O)NC3=O)C4=O)CC2)c(F)cc1Nc1ncc2c(n1)N(C1CCCC1)CC(F)(F)C(=O)N2C` (stereo not drawn) [Compound 12, 4-((9-cyclopentyl-7,7-difluoro-5-methyl-6-oxo-6,7,8,9-tetrahydro-5H-pyrimido[4,5-b][1,4]diazepin-2-yl)amino)-N-(1-(8-((2-(2,6-dioxopiperidin-3-yl)-1,3-dioxoisoindolin-4-yl)amino)octyl)piperidin-4-yl)-2-fluoro-5-methoxybenzamide], the 50% degradation concentration (DC50) is > 500 nM. Besides, the Dmax (read-out: Dmax) fell in the range of 60 to 80%.

For the compound `COc1cc(C(=O)NC2CCN(CCCCCCCCCNc3cccc4c3C(=O)N(C3CCC(=O)NC3=O)C4=O)CC2)c(F)cc1Nc1ncc2c(n1)N(C1CCCC1)CC(F)(F)C(=O)N2C` (stereo not drawn) [Compound 13], the DC50 was ≤ 500 nM; the Dmax entry is “B (B: Dmax is 80% or less and 60% or more)”.

For the compound `COc1cc(C(=O)NC2CCN(CCCCCCCCCCNc3cccc4c3C(=O)N(C3CCC(=O)NC3=O)C4=O)CC2)c(F)cc1Nc1ncc2c(n1)N(C1CCCC1)CC(F)(F)C(=O)N2C` (stereo not drawn) [Compound 14, 4-((9-cyclopentyl-7,7-difluoro-5-methyl-6-oxo-6,7,8,9-tetrahydro-5H-pyrimido[4,5-b][1,4]diazepin-2-yl)amino)-N-(1-(10-((2-(2,6-dioxopiperidin-3-yl)-1,3-dioxoisoindolin-4-yl)amino)decyl)piperidin-4-yl)-2-fluoro-5-methoxybenzamide], the Dmax (read-out: Dmax) is < 60%.

As for `COc1cc(C(=O)NC2CCN(CCCCCCCCCCCNc3cccc4c3C(=O)N(C3CCC(=O)NC3=O)C4=O)CC2)c(F)cc1Nc1ncc2c(n1)N(C1CCCC1)CC(F)(F)C(=O)N2C` (stereo not drawn) [Compound 15, 4-((9-cyclopentyl-7,7-difluoro-5-methyl-6-oxo-5H,6H,7H,8H,9H-pyrimido[4,5-b][1,4]diazepin-2-yl)amino)-N-(1-(11-((2-(2,6-dioxopiperidin-3-yl)-1,3-dioxo-2,3-dihydro-1H-isoindol-4-yl)amino)undecyl)piperidin-4-yl)-2-fluoro-5-methoxybenzamide], the DC50 was > 500 nM. Where the note is “read-out: Dmax”, the Dmax lay within 60 to 80%.

Take `COc1cc(C(=O)NC2CCN(CCCCCCCCCCCCCNc3cccc4c3C(=O)N(C3CCC(=O)NC3=O)C4=O)CC2)c(F)cc1Nc1ncc2c(n1)N(C1CCCC1)CC(F)(F)C(=O)N2C` (stereo not drawn) [Compound 16, 4-((9-cyclopentyl-7,7-difluoro-5-methyl-6-oxo-6,7,8,9-tetrahydro-5H-pyrimido[4,5-b][1,4]diazepin-2-yl)amino)-N-(1-(13-((2-(2,6-dioxopiperidin-3-yl)-1,3-dioxoisoindolin-4-yl)amino)tridecyl)piperidin-4-yl)-2-fluoro-5-methoxybenzamide]: the greatest degradation seen (Dmax) (read-out: Dmax) is < 60%.

With `COc1cc(C(=O)NC2CCN(CCCCCCCCCCCCCCNc3cccc4c3C(=O)N(C3CCC(=O)NC3=O)C4=O)CC2)c(F)cc1Nc1ncc2c(n1)N(C1CCCC1)CC(F)(F)C(=O)N2C` (stereo not drawn) [Compound 17, 4-((9-cyclopentyl-7,7-difluoro-5-methyl-6-oxo-5H,6H,7H,8H,9H-pyrimido[4,5-b][1,4]diazepin-2-yl)amino)-N-(1-(14-((2-(2,6-dioxopiperidin-3-yl)-1,3-dioxo-2,3-dihydro-1H-isoindol-4-yl)amino)tetradecyl)piperidin-4-yl)-2-fluoro-5-methoxybenzamide], the Dmax (read-out: Dmax) is < 60%.

`COc1cc(C(=O)NC2CCN(CCCOCCCNc3cccc4c3C(=O)N(C3CCC(=O)NC3=O)C4=O)CC2)c(F)cc1Nc1ncc2c(n1)N(C1CCCC1)CC(F)(F)C(=O)N2C` (stereo not drawn) [Compound 18, 4-((9-cyclopentyl-7,7-difluoro-5-methyl-6-oxo-6,7,8,9-tetrahydro-5H-pyrimido[4,5-b][1,4]diazepin-2-yl)amino)-N-(1-(3-(3-((2-(2,6-dioxopiperidin-3-yl)-1,3-dioxoisoindolin-4-yl)amino)propoxy)propyl)piperidin-4-yl)-2-fluoro-5-methoxybenzamide]: the DC50 is ≤ 500 nM. The Dmax (read-out: Dmax) was 60 to 80%.

Turning to `COc1cc(C(=O)NC2CCN(CCCCOCCCNc3cccc4c3C(=O)N(C3CCC(=O)NC3=O)C4=O)CC2)c(F)cc1Nc1ncc2c(n1)N(C1CCCC1)CC(F)(F)C(=O)N2C` (stereo not drawn) [Compound 19, 4-((9-cyclopentyl-7,7-difluoro-5-methyl-6-oxo-6,7,8,9-tetrahydro-5H-pyrimido[4,5-b][1,4]diazepin-2-yl)amino)-N-(1-(4-(3-((2-(2,6-dioxopiperidin-3-yl)-1,3-dioxoisoindolin-4-yl)amino)propoxy)butyl)piperidin-4-yl)-2-fluoro-5-methoxybenzamide], the DC50 was ≤ 500 nM. For the same compound, the Dmax (read-out: Dmax) lay within 60 to 80%.

For the compound `COc1cc(C(=O)NC2CCN(CCCOCCCCNc3cccc4c3C(=O)N(C3CCC(=O)NC3=O)C4=O)CC2)c(F)cc1Nc1ncc2c(n1)N(C1CCCC1)CC(F)(F)C(=O)N2C` (stereo not drawn) [Compound 20, 4-((9-cyclopentyl-7,7-difluoro-5-methyl-6-oxo-6,7,8,9-tetrahydro-5H-pyrimido[4,5-b][1,4]diazepin-2-yl)amino)-N-(1-(3-(4-((2-(2,6-dioxopiperidin-3-yl)-1,3-dioxoisoindolin-4-yl)amino)butoxy)propyl)piperidin-4-yl)-2-fluoro-5-methoxybenzamide], the maximal degradation (Dmax) (read-out: Dmax) was < 60%.

For `COc1cc(C(=O)NC2CCN(CCOCCCOCCNc3cccc4c3C(=O)N(C3CCC(=O)NC3=O)C4=O)CC2)c(F)cc1Nc1ncc2c(n1)N(C1CCCC1)CC(F)(F)C(=O)N2C` (stereo not drawn) [Compound 21, 4-((9-cyclopentyl-7,7-difluoro-5-methyl-6-oxo-6,7,8,9-tetrahydro-5H-pyrimido[4,5-b][1,4]diazepin-2-yl)amino)-N-(1-(2-(3-(2-((2-(2,6-dioxopiperidin-3-yl)-1,3-dioxoisoindolin-4-yl)amino)ethoxy)propoxy)ethyl)piperidin-4-yl)-2-fluoro-5-methoxybenzamide], the DC50 was ≤ 50 nM. For the setting “read-out: Dmax”, the Dmax was ≥ 80%.
